Series [1] deals with T1, porcine Aminopeptidase N (APN) (Sus scrofa, UniProt P15145).
T1 construct: aminopeptidase from porcine kidney (pAPN, Sigma Aldrich); purchased Sigma Aldrich; host or cells: porcine kidney (microsomal preparation)
T1 sequence (P15145 1-963): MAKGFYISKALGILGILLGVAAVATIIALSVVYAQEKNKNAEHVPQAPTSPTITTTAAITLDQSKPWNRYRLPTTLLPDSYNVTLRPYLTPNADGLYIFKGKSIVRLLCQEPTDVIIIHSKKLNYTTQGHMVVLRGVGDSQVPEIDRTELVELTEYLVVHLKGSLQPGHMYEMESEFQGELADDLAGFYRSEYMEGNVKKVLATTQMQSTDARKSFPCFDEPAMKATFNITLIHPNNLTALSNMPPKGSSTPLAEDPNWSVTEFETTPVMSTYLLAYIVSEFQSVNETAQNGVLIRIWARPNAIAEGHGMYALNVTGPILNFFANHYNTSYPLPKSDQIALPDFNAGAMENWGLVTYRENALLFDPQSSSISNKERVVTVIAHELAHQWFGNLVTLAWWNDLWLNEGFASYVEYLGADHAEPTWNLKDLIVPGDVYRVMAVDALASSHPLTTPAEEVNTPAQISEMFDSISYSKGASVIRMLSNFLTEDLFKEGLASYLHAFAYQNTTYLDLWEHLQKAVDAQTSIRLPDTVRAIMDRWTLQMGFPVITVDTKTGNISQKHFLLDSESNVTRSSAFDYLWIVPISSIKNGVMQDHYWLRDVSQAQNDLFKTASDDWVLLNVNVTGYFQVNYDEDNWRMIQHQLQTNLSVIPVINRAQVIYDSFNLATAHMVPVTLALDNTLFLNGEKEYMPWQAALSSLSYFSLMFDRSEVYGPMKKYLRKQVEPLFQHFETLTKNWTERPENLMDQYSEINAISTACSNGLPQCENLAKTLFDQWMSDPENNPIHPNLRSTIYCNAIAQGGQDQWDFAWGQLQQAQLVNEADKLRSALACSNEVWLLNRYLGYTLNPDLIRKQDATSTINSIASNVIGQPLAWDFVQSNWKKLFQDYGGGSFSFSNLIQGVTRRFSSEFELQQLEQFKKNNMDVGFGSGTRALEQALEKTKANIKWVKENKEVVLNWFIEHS
The experiment in a line: porcine Aminopeptidase N inhibition, spectrophotometric. The format is biochemical. An excerpt:
Studies to explore the impact of oxetane modification on the bioactivity of the derived cyclic peptides were undertaken. cCNGRC (26) is known to target Aminopeptidase N (APN), a transmembrane zinc-dependent metalloprotease involved in a variety of processes, including blood pressure regulation, cell migration, viral uptake, cell survival, and angiogenesis.[18],[19] Both oxetane modified derivative 22 and cCNGRC (26) were examined for their inhibitory activity towards porcine APN using a spectrophotometric assay (Table 2).[19]
4. In vitro inhibition assay of aminopeptidase N with oxetane modified peptide 22 and parent
Peptide 26 was synthesised following a procedure by Piras et al.[10] using HCTU as coupling reagent and NMM as base. Oxidation was performed by on-resin cyclization as described for the biotin labelled […]
For the determination of IC50 values of oxetane modified peptide 22 and parent peptide 26, a protocol published by Piras et al.[10] was followed using L-leucine-p-nitroanilide as substrate and microsomal aminopeptidase from porcine kidney (pAPN, Sigma Aldrich) (18 units/mg protein). IC50 values were calculated by following the formation of p-nitroaniline. Formation of p-nitroaniline was monitored by measurement of the UV absorption at 405 nm on a Hidex Sense plate reader. […]

Series [2] is described as follows: stability of oxetane to side-chain deprotection with TFA. The format is physicochemical. The following applies: 70% TFA/20% CH2Cl2/10% TIS, 2.5 h (global side-chain deprotection including Arg Pbf). An excerpt:
Macrocyclisations not involving head-to-tail ring closure have also been examined. Specifically, the formation of disulphide containing macrocycles through oxidative cyclisation of cysteine side chains has been explored (Scheme 5). Treatment of 2, whose synthesis was described in Scheme 3, with iodine provided the 17-membered macrocycle by way of trityl deprotection and disulphide bond formation. Further reaction with TFA in the presence of the cation scavenger triisopropylsilane (TIS) facilitated removal of all the side chain protecting groups providing 22 after reverse-phase HPLC purification. […] Smaller 11- and 14-membered macrocycles 23 and 24 were also conveniently produced in good yields using this methodology.
[formula] Scheme 5 Oxetane modified cyclic peptides by disulphide bond formation.^a^,^b^aReagents and conditions: (a) I2 (3.0 equiv.), MeOH, 1 h; (b) 70% TFA/20% CH2Cl2/10% TIS, 2.5 h. ^bBond formed in macrocyclisation indicated in red. ^cTFA step omitted; yield in parenthesis for the cyclisation of linear peptide with C?O rather than oxetane in backbone. ^dData taken from [ref. 14].
Fmoc-Cys(Trt)-Asn(Trt)-GOx-Arg(Pbf)-Cys(Trt)-OtBu (2)
Diethylamine (1.0 mL) was added to a solution of Fmoc-GOx-Arg(Pbf)-Cys(Trt)-OtBu (127) […]
and the reaction mixture was stirred at room temperature for 1 h. […]

Each structure is given as a SMILES string. Like-named read-outs stand apart in the source and are kept apart here. Positions of bridges follow the written chain, without caps; N, C: chain ends. Residues, ends and D or L forms follow the SMILES beside them.

Data on two molecules can be found in article PMC6385813, “Macrocyclisation of small peptides enabled by oxetane incorporation” (Chemical Science, 2019).

In the case of `N=C(N)NCCC[C@@H]1NC2(CNC(=O)[C@H](CC(N)=O)NC(=O)[C@@H](N)CSSC[C@@H](C(=O)O)NC1=O)COC2` [Compound 22, Cyclo(H-Cys-Asn-GOx-Arg-Cys-OH)], the IC50 in series [1] (read-out: IC50) is 175 µM. The “oxetane stability to acid” value in series [2] was “survives the strongly acid conditions”. Turning to `N=C(N)NCCC[C@@H]1NC(=O)CNC(=O)[C@H](CC(N)=O)NC(=O)[C@@H](N)CSSC[C@@H](C(=O)O)NC1=O` [cCNGRC (26), reference compound] (H-CNGRC-OH; disulfide 1-5), the IC50 in series [1] was 212 µM.
